Test results as given in the supplement of paper PMC10307832.

What was measured:
Experiment in all cases: relative viability (nuclei count vs DMSO), 5 days (fraction); higher = more cells survive
BAY61-3606 + OSI-027 = compound: COC1=C(C=C(C=C1)C2=CC3=NC=CN3C(=N2)NC4=C(C=CC=N4)C(=O)N)OC [BAY61-3606] + COc1cccc2cc(-c3nc([C@H]4CC[C@H](C(=O)O)CC4)n4ncnc(N)c34)[nH]c12 [OSI-027] (partner 0.5 µM)
Method in brief: (§1)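 Cells from lung cancer lines were seeded into 1536-well plates and, one day later, dosed by pin tool. Treatments were either a single drug or a fixed dose of an anchor drug with five library-drug doses (not always all listed) in √10 steps. After 5 days, nuclei were stained in a one-step fixation (final 0.05% Triton X-100, 1% formaldehyde, 1 ug/ml Hoechst) and counted on 4× images, and relative viability is the treated-to-vehicle nuclei ratio, as the median of duplicate plates.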

Doxorubicin + Lapatinib = compound: COc1cccc2c1C(=O)c1c(O)c3c(c(O)c1C2=O)C[C@@](O)(C(=O)CO)C[C@@H]3O[C@H]1C[C@H](N)[C@H](O)[C@H](C)O1 [Doxorubicin] + CS(=O)(=O)CCNCc1ccc(-c2ccc3ncnc(Nc4ccc(OCc5cccc(F)c5)c(Cl)c4)c3c2)o1 [Lapatinib] (partner 2 µM)
Method in brief: as §1

Doxorubicin + Dasatinib = compound: COc1cccc2c1C(=O)c1c(O)c3c(c(O)c1C2=O)C[C@@](O)(C(=O)CO)C[C@@H]3O[C@H]1C[C@H](N)[C@H](O)[C@H](C)O1 [Doxorubicin] + Cc1nc(Nc2ncc(C(=O)Nc3c(C)cccc3Cl)s2)cc(N2CCN(CCO)CC2)n1 [Dasatinib] (partner 0.075 µM)
Method in brief: as §1

BAY61-3606 + Pictilisib = compound: COC1=C(C=C(C=C1)C2=CC3=NC=CN3C(=N2)NC4=C(C=CC=N4)C(=O)N)OC [BAY61-3606] + CS(=O)(=O)N1CCN(Cc2cc3nc(-c4cccc5[nH]ncc45)nc(N4CCOCC4)c3s2)CC1 [Pictilisib] (partner 1 µM)
Method in brief: as §1

Cell Line	relative viability (BAY61-3606 + OSI-027; first compound 0.02 µM)	relative viability (BAY61-3606 + OSI-027; first compound 0.06325 µM)	relative viability (BAY61-3606 + OSI-027; first compound 0.2 µM)	relative viability (BAY61-3606 + OSI-027; first compound 0.6325 µM)	relative viability (BAY61-3606 + OSI-027; first compound 2 µM)	relative viability (Doxorubicin + Lapatinib; first compound 0.001 µM)	relative viability (Doxorubicin + Lapatinib; first compound 0.003162 µM)	relative viability (Doxorubicin + Lapatinib; first compound 0.01 µM)	relative viability (Doxorubicin + Lapatinib; first compound 0.03162 µM)	relative viability (Doxorubicin + Lapatinib; first compound 0.1 µM)	relative viability (Doxorubicin + Dasatinib; first compound 0.001 µM)	relative viability (Doxorubicin + Dasatinib; first compound 0.003162 µM)	relative viability (Doxorubicin + Dasatinib; first compound 0.01 µM)	relative viability (Doxorubicin + Dasatinib; first compound 0.03162 µM)	relative viability (Doxorubicin + Dasatinib; first compound 0.1 µM)	relative viability (BAY61-3606 + Pictilisib; first compound 0.02 µM)	relative viability (BAY61-3606 + Pictilisib; first compound 0.06325 µM)	relative viability (BAY61-3606 + Pictilisib; first compound 0.2 µM)	relative viability (BAY61-3606 + Pictilisib; first compound 0.6325 µM)	relative viability (BAY61-3606 + Pictilisib; first compound 2 µM)
NCI-H1355	0.409	0.329	0.374	0.377	0.286	0.952	1.08	0.963	0.888	0.856	0.723	0.789	0.722	0.706	0.764	0.508	0.378	0.389	0.374	0.302
NCI-H3122	1.02	0.922	0.891	1.27	0.847	1.02	1	1.02	1	0.958	0.684	0.837	0.735	0.291	0.928	0.621	0.632	0.568	0.59	0.619
NCI-H2009	0.754	0.686	0.681	0.597	0.348	0.912	0.245	0.763	0.376	0.283	0.308	0.319	0.296	0.272	0.235	0.897	0.849	0.851	0.751	0.52
NCI-H520	0.247	0.364	0.364	0.296	0.212	0.881	0.965	0.753	0.48	0.248	0.234	0.218	0.202	0.151	0.183	0.316	0.32	0.329	0.261	0.317
SW 1573	0.613	0.552	0.51	0.63	0.325	0.978	1.21	1.15	0.75	0.559	0.544	0.452	0.174	0.106	0.0634	0.476	0.44	0.464	0.514	0.367
HARA	0.554	0.463	0.513	0.536	0.311	0.599	0.591	0.893	0.62	0.659	0.26	0.344	0.296	0.261	0.23	0.444	0.371	0.372	0.39	0.312
NCI-H2126	0.729	0.616	0.751	0.695	0.655	0.766	0.796	0.76	0.728	0.773	0.619	0.556	0.55	0.232	0.224	0.543	0.503	0.492	0.51	0.447
NCI-H1563	0.742	0.764	0.699	0.71	0.676	0.721	0.779	0.661	0.545	0.549	0.481	0.505	0.45	0.462	0.483	0.621	0.579	0.731	0.654	0.653
NCI-H1915	0.623	0.632	0.571	0.662	0.443	0.975	0.929	0.99	0.975	0.99	0.281	0.355	0.308	0.302	0.324	0.999	0.99	0.739	0.884	0.685
PC-14	0.786	0.787	0.746	1.24	0.522	0.353	0.351	0.293	0.286	0.302	0.28	0.184	0.22	0.0983	0.0282	0.647	0.605	0.654	0.994	0.589
COR-L23	0.764	0.806	0.712	0.778	0.496	0.955	1.19	0.921	0.241	0.14	0.466	0.629	0.486	0.27	0.128	0.933	0.871	0.866	0.871	0.449
COR-L 105	0.843	0.645	0.726	0.704	0.468	0.372	0.358	0.321	0.287	0.283	0.431	0.355	0.323	0.257	0.261	0.505	0.385	0.434	0.373	0.346
LK-2	0.197	0.16	0.22	0.231	0.185	0.879	0.74	0.804	0.724	0.81	0.326	0.284	0.221	0.286	0.265	0.594	0.423	0.614	0.758	0.532
201T	0.759	–	0.703	0.661	0.512	0.942	0.968	1.04	1.01	1.03	0.537	0.636	0.561	0.583	0.546	0.716	0.677	0.761	0.703	0.744
HCC-78	0.411	0.393	0.404	0.351	0.427	0.752	0.723	0.77	0.673	0.466	0.412	0.465	0.366	0.349	0.363	0.297	0.226	0.251	0.158	0.167
